Data taken from patent US12275731B2, “Azaindole inhibitors of wild-type and mutant forms of LRRK2” (DANA-FARBER CANCER INSTITUTE, INC., priority 2018, dated 2025).

How the values were obtained:
Assay in all cases: KinomeScan profiling
Format in all cases: binding
[1] = molecular target: T1, RSK1(Kin.Dom.2-C-terminal) (Homo sapiens, UniProt Q15418); conditions: read-out: % control
T1 construct: RSK1(Kin.Dom.2-C-terminal)
How it was run: (§1)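 At 1 μM in DMSO, compounds are run through a broad 468-member kinase panel. The luminescent read-out is normalised so that vehicle gives 100% and a positive control gives 0%; any kinase falling below 35% is treated as a target.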

ASK2 = molecular target: T2, ASK2 (Homo sapiens, UniProt O95382); conditions: ASK2, 1 μM; read-out: % control
T2 construct: purchased KinomeScan®
T2 sequence (O95382 1-1288): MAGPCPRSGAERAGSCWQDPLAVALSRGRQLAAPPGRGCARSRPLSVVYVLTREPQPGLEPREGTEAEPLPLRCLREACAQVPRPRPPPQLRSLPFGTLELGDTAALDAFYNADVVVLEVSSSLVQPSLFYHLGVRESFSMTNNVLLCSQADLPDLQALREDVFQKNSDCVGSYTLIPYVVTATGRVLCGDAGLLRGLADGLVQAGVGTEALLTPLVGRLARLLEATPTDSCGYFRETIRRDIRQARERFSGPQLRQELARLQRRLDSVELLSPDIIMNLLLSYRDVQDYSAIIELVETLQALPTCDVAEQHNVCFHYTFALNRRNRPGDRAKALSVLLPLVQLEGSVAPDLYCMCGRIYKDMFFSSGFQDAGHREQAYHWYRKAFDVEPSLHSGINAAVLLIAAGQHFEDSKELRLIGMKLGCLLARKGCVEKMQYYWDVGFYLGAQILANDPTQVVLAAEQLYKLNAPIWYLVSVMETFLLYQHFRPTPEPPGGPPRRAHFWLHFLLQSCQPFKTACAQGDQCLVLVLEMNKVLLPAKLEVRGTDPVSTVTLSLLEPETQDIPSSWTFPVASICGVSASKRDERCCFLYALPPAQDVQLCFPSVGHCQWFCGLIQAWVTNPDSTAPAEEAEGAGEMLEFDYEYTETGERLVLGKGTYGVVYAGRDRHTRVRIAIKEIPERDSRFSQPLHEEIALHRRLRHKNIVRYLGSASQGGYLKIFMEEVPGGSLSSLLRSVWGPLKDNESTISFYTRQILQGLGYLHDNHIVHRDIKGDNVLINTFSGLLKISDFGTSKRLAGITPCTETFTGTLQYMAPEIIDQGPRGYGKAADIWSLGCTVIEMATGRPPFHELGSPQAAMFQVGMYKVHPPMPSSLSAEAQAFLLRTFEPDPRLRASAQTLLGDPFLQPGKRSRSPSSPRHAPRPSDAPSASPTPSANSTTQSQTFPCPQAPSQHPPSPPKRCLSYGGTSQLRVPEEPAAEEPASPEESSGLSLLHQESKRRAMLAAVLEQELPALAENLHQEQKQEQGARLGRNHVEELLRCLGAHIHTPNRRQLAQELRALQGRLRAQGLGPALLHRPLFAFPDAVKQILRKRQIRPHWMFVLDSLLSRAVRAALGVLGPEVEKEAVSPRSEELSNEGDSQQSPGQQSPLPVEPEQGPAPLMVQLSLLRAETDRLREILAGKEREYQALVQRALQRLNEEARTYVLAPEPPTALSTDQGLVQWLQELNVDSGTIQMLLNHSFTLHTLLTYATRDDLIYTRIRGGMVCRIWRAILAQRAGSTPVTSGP
How it was run: as §1

LRRK2 = LRRK2 (Homo sapiens, UniProt Q5S007); conditions: LRRK2, 1 μM; read-out: % control
How it was run: as §1

MYLK = MYLK (Homo sapiens, UniProt Q15746); conditions: read-out: % control
How it was run: as §1

T1 sequence (Q15418 418-675 limits assumed): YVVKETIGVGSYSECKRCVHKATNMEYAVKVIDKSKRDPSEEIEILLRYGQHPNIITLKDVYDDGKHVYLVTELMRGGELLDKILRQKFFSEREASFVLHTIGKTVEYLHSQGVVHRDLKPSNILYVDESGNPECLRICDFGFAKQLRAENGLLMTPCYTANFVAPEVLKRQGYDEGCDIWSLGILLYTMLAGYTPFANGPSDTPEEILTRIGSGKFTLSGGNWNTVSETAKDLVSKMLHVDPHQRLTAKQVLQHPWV
Chain of LRRK2 (Q5S007 whole entry): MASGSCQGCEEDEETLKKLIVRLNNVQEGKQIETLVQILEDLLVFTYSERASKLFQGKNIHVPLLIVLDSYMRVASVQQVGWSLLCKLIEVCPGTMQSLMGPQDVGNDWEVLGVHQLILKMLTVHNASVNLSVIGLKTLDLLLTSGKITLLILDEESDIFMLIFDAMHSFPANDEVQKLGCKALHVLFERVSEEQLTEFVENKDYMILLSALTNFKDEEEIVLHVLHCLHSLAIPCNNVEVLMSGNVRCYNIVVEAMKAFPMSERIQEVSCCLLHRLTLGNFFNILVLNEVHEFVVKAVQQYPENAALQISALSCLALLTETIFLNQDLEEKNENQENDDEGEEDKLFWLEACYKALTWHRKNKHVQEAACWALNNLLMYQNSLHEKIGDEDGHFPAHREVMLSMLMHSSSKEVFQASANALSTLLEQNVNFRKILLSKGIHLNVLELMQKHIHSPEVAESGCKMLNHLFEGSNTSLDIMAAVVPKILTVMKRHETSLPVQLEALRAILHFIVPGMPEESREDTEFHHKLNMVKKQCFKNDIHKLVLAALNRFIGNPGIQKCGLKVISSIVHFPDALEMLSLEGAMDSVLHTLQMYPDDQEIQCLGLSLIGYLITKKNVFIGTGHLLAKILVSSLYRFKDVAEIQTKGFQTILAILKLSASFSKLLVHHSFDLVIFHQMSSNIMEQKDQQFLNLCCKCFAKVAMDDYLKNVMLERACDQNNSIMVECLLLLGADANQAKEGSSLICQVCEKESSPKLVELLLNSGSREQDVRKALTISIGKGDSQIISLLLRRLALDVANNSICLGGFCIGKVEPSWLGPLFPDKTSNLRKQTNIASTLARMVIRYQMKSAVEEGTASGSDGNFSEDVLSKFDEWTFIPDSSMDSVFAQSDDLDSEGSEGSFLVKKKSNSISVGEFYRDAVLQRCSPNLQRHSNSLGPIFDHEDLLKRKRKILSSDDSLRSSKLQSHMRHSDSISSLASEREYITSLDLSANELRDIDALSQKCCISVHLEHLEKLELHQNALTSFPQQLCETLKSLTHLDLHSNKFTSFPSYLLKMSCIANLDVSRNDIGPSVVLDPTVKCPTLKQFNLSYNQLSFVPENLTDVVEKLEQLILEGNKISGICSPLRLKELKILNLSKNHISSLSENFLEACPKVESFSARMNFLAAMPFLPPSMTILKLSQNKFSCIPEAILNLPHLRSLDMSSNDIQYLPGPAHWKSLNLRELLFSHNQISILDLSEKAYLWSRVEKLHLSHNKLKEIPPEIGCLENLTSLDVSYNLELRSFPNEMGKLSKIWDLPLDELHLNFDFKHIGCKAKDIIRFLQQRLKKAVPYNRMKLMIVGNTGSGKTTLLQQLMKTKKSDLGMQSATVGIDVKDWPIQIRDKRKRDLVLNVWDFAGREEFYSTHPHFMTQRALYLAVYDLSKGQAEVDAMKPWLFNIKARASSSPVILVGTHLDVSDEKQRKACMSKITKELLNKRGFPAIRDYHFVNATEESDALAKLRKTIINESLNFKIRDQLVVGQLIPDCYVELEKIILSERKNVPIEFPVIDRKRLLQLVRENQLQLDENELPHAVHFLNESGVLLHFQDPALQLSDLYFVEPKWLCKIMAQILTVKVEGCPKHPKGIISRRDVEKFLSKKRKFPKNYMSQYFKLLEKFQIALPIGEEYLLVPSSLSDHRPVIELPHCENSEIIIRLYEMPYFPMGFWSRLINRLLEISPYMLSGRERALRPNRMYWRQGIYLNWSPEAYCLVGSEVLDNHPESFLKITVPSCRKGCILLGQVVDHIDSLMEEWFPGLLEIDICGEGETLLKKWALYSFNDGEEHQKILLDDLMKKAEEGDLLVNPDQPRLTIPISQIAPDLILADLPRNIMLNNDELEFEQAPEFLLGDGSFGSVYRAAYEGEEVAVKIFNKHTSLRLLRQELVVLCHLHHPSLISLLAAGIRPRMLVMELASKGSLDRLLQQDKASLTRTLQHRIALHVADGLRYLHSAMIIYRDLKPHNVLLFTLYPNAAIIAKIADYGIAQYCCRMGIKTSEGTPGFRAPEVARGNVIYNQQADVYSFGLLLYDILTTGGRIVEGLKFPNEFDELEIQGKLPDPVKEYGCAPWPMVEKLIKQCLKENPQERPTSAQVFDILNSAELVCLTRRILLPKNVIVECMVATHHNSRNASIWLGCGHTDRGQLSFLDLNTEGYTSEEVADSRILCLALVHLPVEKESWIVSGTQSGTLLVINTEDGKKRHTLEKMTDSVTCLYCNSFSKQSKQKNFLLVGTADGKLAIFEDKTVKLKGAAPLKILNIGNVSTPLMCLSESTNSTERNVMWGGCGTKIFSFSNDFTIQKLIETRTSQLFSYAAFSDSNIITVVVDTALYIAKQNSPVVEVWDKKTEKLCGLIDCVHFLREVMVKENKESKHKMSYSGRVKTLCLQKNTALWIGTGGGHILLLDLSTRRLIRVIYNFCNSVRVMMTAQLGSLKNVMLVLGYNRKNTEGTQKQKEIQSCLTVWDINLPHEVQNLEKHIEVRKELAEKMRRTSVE
Chain of MYLK (Q15746 whole entry): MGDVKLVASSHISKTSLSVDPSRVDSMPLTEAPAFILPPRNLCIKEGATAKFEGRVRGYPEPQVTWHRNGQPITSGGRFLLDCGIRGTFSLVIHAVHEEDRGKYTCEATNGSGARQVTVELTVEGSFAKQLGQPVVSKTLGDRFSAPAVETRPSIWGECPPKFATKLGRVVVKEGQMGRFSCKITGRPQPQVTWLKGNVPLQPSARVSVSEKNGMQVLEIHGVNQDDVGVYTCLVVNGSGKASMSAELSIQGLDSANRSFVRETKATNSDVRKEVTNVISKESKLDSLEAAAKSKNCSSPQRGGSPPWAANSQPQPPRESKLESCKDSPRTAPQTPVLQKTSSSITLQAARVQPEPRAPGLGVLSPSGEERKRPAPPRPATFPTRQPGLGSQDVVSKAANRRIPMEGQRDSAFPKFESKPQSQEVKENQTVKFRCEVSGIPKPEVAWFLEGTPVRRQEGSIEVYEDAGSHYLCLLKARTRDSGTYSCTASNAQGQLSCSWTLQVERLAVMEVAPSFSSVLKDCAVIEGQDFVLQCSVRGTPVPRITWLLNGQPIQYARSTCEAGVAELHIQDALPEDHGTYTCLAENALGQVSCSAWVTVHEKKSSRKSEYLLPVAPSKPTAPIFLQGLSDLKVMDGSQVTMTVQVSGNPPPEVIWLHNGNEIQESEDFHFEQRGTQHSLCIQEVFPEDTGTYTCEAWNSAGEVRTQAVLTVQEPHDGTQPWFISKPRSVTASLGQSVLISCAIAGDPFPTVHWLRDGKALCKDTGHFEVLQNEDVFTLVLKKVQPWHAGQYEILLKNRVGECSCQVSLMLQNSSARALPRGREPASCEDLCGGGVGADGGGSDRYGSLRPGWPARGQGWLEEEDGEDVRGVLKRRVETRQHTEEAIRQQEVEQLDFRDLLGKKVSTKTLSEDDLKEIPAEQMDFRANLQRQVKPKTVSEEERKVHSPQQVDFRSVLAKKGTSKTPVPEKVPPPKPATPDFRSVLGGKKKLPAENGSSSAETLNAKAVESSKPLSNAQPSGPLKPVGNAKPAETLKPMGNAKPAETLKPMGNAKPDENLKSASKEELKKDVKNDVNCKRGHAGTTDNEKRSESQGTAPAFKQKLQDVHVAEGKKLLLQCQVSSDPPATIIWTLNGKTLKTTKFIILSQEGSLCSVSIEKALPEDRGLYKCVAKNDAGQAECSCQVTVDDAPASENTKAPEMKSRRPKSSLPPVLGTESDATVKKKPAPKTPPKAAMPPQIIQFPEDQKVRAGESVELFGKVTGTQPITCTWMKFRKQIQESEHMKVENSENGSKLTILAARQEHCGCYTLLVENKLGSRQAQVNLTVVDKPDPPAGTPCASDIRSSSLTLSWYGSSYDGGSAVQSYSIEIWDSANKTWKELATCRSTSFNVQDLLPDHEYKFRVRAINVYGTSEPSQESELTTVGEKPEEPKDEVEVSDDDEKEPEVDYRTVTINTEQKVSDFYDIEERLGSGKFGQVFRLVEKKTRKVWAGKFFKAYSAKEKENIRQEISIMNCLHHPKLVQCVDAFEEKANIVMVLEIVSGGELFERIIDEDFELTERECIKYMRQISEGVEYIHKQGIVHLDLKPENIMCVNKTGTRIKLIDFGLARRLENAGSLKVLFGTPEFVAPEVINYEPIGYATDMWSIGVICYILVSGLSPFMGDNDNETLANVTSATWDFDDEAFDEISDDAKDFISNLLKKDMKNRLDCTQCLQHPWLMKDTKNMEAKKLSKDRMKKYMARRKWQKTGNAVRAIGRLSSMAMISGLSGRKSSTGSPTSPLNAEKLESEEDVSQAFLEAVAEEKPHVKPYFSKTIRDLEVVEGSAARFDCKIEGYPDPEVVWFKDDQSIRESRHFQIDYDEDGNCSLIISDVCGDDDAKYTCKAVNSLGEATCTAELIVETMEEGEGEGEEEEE

Compound	remaining binding at 1 µM [1] [%]	remaining binding at 1 µM (ASK2) [%]	remaining binding at 1 µM (LRRK2) [%]	remaining binding at 1 µM (MYLK) [%]
CNc1c(-c2ccc(C(=O)N3CCC(N4CCOCC4)CC3)cc2)cnc2[nH]cc(Cl)c12 [Compound 96, (4-(3-chloro-4-(methylamino)-1H-pyrrolo[2,3-b]pyridin-5-yl)phenyl)(4-morpholinopiperidin-1-yl)methanone]	100	42	2.6	85
O=C(c1ccc(-c2cnc3[nH]cc(Cl)c3c2NC2CCCC2)cc1)N1CCC(N2CCOCC2)CC1 [Compound 101, (4-(3-chloro-4-(cyclopentylamino)-1H-pyrrolo[2,3-b]pyridin-5-yl)phenyl)(4-morpholinopiperidin-1-yl)methanone]	88	100	33	83
CNc1c(-c2cnn([C@H]3CCN(C(C)=O)C[C@@H]3F)c2)cnc2[nH]cc(Cl)c12 [Compound 77, 1-((3S,4S)-4-(4-(3-chloro-4-(methylamino)-1H-pyrrolo[2,3-b]pyridin-5-yl)-1H-pyrazol-1-yl)-3-fluoropiperidin-1-yl)ethan-1-one]	99	30	15	72
